What was measured:
[1] = system: B. cenocepacia C8963; experiment: Biofilm formation in 96-well microtiter dish assay (crystal violet staining, A595); assay type: cell-based, Burkholderia cenocepacia; conditions: for C8963 biofilm growth in the presence of gNO compared with absence of gNO: 200 ppm gNO; for Average A595 (C8 + NO), biofilm formation: experiment 2
Experimental: (§1) Objective: To determine if exposure to gaseous nitric oxide (gNO) affects the ability of B. cenocepacia C8963 to form a biofilm in a 96-well microtiter dish assay.
(§2) Methods: B. cenocepacia C8963, a non-mucoid isolate from a cystic fibrosis (CF) patient, and C9343, a mucoid isolate from the same patient, were spotted on Luria Broth agar and grown at 37° C. overnight. Luria broth containing 0.5% (w/v) casamino acids was dispensed into 96-well polypropylene microtiter dishes (100 μl per well) and the wells inoculated with the C8963 or C9343 using a pin-inoculation device. Blank wells were not inoculated. Dishes were incubated in a humidified, closed plastic container for 24 hours at 37° C. (experiment 1) or in the outer chamber of the matrix incubator (a humidified incubator with controlled air flow) for 27 hours at 37° C. (experiment 2). At 24 hours (experiment 1) or 27 hours (experiment 2), one dish was processed for staining of the bacterial biofilms. The remaining dishes were incubated in the inner treatment arms of the matrix incubator at 37° C. in the presence or absence of 200 ppm gNO. One dish for each of the conditions (+gNO or −gNO) was processed for biofilm staining at 32, 36, and 48 hours.
(§3) To stain biofilm growth, planktonic bacteria were removed from the microtitre dishes by discarding media and cells. Biofilms were washed to remove remaining non-adherent bacteria in two successive tap water washes. Water was shaken from the wells and the dishes inverted and tapped vigorously on a stack of paper towels to remove as much water as possible. Adherent growth was stained by adding 125 μlof a 0.1% (w/v) solution of crystal violet to each well and incubating at room temperature for 15 minutes. Crystal violet was discarded as for the previous washes and excess stain was removed in three successive tap-water washes. Excess water was removed by vigorous tapping as before and the stained dishes allowed to air dry.
(§4) To quantitate biofilm formation, 200 μl of 95% ethanol was added to each well, incubated at room temperature for 15 minutes, and 125 μl from each well was removed to a clean flat-bottomed polystyrene microtitre dish. The absorbance at 595 nm was read on a Bio-Rad Model 3550 Microplate Reader. The average reading from “Blank” (uninoculated) wells containing only media was subtracted from each “Test” well. The [Test-Blank] averages and standard errors of the mean (SEM) were calculated for each condition and time.

[2] = system: B. cenocepacia C9343; experiment: as above; assay type: cell-based, Burkholderia cenocepacia; conditions: 200 ppm gNO; experiment 1
Experimental: as §1, §2, §3, §4

[N]=O [gNO, nitric oxide]
Effect on biofilm formation of C8963 ([1]; 200 ppm final concentration of gNO): inhibited biofilm formation | C8963 biofilm growth in the presence of gNO compared with absence of gNO ([1]; at 32 hours, experiments 1 and 2): greater than in the absence of gNO | C8963 biofilm growth in the presence of gNO compared with absence of gNO ([1]; by 36 hours, experiments 1 and 2): significantly lower than in the absence of gNO | C8963 biofilm growth in the presence of gNO compared with absence of gNO ([1]; remaining time points up to 48 hours, both experiments): consistently lower | Average A595 (C8 + NO), biofilm formation ([1]; time 27 h, after 27 hours in air, before exposure to 200 ppm gNO): 0.076 | Average A595 (C8 + NO), biofilm formation ([1]; time 32 h, 200 ppm gNO from 27 h, 37° C.): 0.282 | Average A595 (C8 + NO), biofilm formation ([1]; time 36 h, 200 ppm gNO from 27 h, 37° C.): 0.252 | Average A595 (C8 + NO), biofilm formation ([1]; time 48 h, 200 ppm gNO from 27 h, 37° C.): 0.334 | Effect on biofilm growth of C8963 ([1]; low initial concentrations of gNO): enhanced biofilm growth | Induction of biofilm formation by mucoid C9343 [2]: did not induce biofilm formation

— patent US7485324B2, “Use of exogenous gaseous nitric oxide in the treatment and disinfection of biofilms” (Pulmonox Technologies Corporation, priority 2003, dated 2009)
